Laboratory results from patent US5925769A, “Acetylenic 1,5-diarylpyrazoles as antiinflammatory agents” (Ortho Pharmaceutical, Corp., priority 1998, dated 1999).

What was measured:
5-LO [1] = target: T1, 5-LO (Rattus norvegicus, UniProt P12527); assay: Procedure II: 5-LO activity (5-HETE) in broken RBL-1 cells (homogenate supernatant); type: biochemical; conditions: RBL-1 broken cell supernatant; for IC50: read-out: Proc. II 5-LO IC50; for inhibition at 10 µM: 20 min, @ 10 .quadrature.M, read-out: Proc. II 5-LO % inhibition
T1 construct: the supernatant was saved as the source of enzymes; endogenous in cells; host or cells: RBL-1 (rat basophilic leukemia) cells
T1 sequence (P12527 1-673): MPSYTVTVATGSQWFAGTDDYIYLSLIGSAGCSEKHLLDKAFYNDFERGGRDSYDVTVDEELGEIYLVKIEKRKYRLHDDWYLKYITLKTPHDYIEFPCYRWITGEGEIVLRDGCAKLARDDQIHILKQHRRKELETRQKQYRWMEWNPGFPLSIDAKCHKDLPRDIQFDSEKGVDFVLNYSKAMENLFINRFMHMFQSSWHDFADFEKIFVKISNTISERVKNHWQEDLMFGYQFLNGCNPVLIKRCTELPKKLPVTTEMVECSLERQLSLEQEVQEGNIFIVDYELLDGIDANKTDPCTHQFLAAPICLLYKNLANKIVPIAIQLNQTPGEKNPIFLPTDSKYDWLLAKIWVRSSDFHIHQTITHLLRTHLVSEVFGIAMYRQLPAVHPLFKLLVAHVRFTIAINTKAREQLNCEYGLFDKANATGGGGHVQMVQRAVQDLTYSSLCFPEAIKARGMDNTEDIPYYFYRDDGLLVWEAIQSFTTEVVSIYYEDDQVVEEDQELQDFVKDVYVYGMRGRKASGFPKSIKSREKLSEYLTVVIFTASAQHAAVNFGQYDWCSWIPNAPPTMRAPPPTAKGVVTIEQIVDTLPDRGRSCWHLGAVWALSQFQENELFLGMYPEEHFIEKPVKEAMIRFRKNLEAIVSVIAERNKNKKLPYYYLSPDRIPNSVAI
Procedure: (§1) Procedure II was used to assess LO and CO activity. Rat basophilic leukemia cells (RBL-1; 5×10^7 viable cells/mL) were disrupted by homogenization on ice (four 20 sec bursts) with a Brinkman polytron. […] The homogenate was then centrifuged at 9,220×g for 48 minutes at 4° C. The pellet was discarded and the supernatant was saved as the source of enzymes. The supernatant was pre-incubated for five minutes at 37° C. in the presence of 2 mM of CaCl2 and compound or vehicle (1% DMSO). The conversion of AA into products by CO and LO was initiated by adding 10 μL (50 μCi) of 1-^14 C-AA to each tube and incubated at 37° C. for 20 minutes. The reaction was stopped by adjusting the pH of each sample to 3 to 3.5 with 2M formic acid. Samples were extracted with three volumes of chloroform to isolate the products of 5-LO formed during the reaction. Fractions were dried under nitrogen, then resuspended in 40 μL of chloroform and spotted onto silica gel HL plates. The plates were developed in A-9 solvent. The dried plates were analyzed using a Bioscan Imaging TLC scanner to determine the percentage of radiolabelled AA converted to 5-HETE (LO product) in each sample. The percentage of inhibition was calculated by:
(§2) [1-(5-HETE test)]/5-HETE control×100=% inhibition
(§3) The IC50 was determined using a curve fit in Cricket Graph (Computer Associated), which provided the equation of the regressed line used in the calculation.

CO [2] = target: T2, CO (Rattus norvegicus, UniProt Q63921); assay: Procedure II: CO activity in broken RBL-1 cells (homogenate supernatant); type: biochemical; conditions: RBL-1 broken cell supernatant; for IC50: read-out: Proc. II CO IC50; for inhibition at 10 µM: 20 min, @ 10 .quadrature.M, read-out: Proc. II CO % inhibition
T2 construct: the supernatant was saved as the source of enzymes; endogenous in cells; host or cells: RBL-1 (rat basophilic leukemia) cells
T2 sequence (Q63921 27-602): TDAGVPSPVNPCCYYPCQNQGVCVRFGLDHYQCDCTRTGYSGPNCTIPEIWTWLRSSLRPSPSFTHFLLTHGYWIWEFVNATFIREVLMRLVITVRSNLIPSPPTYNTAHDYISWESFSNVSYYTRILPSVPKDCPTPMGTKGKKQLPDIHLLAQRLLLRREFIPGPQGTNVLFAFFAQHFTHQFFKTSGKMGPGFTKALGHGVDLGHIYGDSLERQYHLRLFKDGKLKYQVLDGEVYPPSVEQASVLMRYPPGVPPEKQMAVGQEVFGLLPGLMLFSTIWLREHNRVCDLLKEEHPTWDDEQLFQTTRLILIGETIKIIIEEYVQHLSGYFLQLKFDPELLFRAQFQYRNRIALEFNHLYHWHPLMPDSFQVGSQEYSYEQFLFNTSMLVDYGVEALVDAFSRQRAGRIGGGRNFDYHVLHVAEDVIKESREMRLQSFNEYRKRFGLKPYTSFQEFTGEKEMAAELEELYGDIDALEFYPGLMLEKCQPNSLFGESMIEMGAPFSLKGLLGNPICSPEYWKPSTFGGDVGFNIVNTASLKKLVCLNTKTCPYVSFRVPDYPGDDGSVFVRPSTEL
Procedure: as §1, §2, §3

[3] = target: T3, Sheep seminal vesicle (SSV) cyclooxygenase (Ovis aries, UniProt P05979); assay: Procedure I: inhibition of sheep seminal vesicle (SSV) cyclooxygenase; type: biochemical; conditions: SSV cyclooxygenase; for IC50: read-out: Proc. I IC50; for inhibition at 10 µM: 20 min, @ 10 .quadrature.M, read-out: Proc. I % inhibition
T3 construct: Sheep seminal vesicle (SSV) cyclooxygenase (95% pure); purchased Biomol (Plymouth Meeting, PA); host or cells: sheep seminal vesicle
T3 sequence (P05979 25-600): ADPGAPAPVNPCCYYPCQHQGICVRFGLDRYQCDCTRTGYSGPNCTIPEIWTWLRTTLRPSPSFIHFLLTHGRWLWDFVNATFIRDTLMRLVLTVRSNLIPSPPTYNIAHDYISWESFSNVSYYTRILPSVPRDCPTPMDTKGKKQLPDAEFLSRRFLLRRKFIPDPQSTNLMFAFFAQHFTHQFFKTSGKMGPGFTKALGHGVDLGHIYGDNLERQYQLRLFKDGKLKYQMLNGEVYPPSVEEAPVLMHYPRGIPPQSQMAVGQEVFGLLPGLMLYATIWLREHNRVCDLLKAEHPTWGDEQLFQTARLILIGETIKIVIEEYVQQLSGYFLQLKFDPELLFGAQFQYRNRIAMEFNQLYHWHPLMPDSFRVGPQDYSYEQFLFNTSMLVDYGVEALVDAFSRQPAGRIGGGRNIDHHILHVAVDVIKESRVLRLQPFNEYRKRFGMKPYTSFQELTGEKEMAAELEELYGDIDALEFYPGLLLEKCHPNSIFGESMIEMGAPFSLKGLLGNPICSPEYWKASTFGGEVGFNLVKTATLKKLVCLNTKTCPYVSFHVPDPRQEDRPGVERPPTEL
Procedure: Procedure I was used to determine the ability of the compounds to inhibit cyclooxygenase. […] The enzyme was divided into 200 μL aliquots, snap frozen with liquid N2, and stored at -70° C. until immediately prior to use. […] The tubes were mixed on a vortex shaker, preincubated for 5 min at 37° C. prior to the initiation of the reaction. The reaction was started by the addition of [^14 C]-arachidonic acid (1-^14 C-AA, Amersham, Arlington Heights, Ill.) in 10 μL of methanol. Tubes were again vortexed and incubated in a water bath for 20 minutes after which the tubes were removed and the reaction stopped by acidification with the addition of 1 mL 2M formic acid. Lipophilic products were extracted with 3 mL chloroform and concentrated to dryness under N2. Each pellet was reconstituted with 40 μL of chloroform and spotted on a Whatman Silicon thin-layer chromatography plate and developed in a chromatography tank containing A-9 solvent (11:5:2:1 V:V:VV, ethyl acetate:trimethyl-pentane:acetic acid:double distilled-H2 O). Radioactive cyclooxygenase products (prostaglandin D2, prostaglandin E2, etc.) were measured using a Bioscan System 200 Imaging Scanner. Inhibition of enzyme activity was calculated by comparing the areas under the curve produced in the presence or absence of test compound.

5-LO [4] = target: T1, 5-LO; assay: Procedure III: 5-LO (5-HETE) in intact RBL-1 cells; type: cell-based; conditions: calcium ionophore A 23187, read-out: Proc. III 5-LO IC50
Procedure: as §3
(§4) In Procedure III, the ability to inhibit 5-LO and CO in intact RBL-1 cells was also evaluated. […] Cells were collected by centrifugation, washed once in HBSS, and resuspended at a concentration of 1×10^5 cells/mL. Cells were incubated in the presence of vehicle or drug then centrifuged at 800×g for 10 minutes at 4° C. The supernatant was removed by aspiration and the cells were resuspended in 0.5 mL of HBSS. […] The conversion of AA to 5-LO products was initiated by the addition of 10 μL (50 μCi) of 1-^14 C-AA. Products were isolated by acidification and extraction, followed by thin layer chromatography analysis as described above. Radioactive areas corresponding to authentic 5-LO (5-HETE) and CO (PgD2) products were quantitated by the Bioscan 2000 Imaging System and the IC50 was calculated as above.

CO [5] = target: T2, CO; assay: Procedure III: CO (PgD2) in intact RBL-1 cells; type: cell-based; conditions: calcium ionophore A 23187, read-out: Proc. III CO IC50
Procedure: as §3, §4

Row | IC50 (5-LO [1]) | IC50 (CO [2]) | IC50 [3] | IC50 (5-LO [4]) | IC50 (CO [5]) | inhibition at 10 µM (CO [2]) | inhibition at 10 µM (5-LO [1]) | inhibition at 10 µM [3] | SMILES
1 | 1.66 µM | 0.05 µM | 0.42 µM | 23.5 µM | 0.19 µM |  |  |  | COc1ccc(-n2nc(C#CC(C)N(O)C(=O)C(F)(F)F)cc2-c2ccc(C)cc2)cc1 (stereo not drawn) [Cpd 23, N-trifluoroacetyl-N-(1-(1-(4-methoxyphenyl)-5-(4-methylphenyl)pyrazol-3-yl)-1-butyn-3-yl)hydroxylamine]
2 | 0.07 µM | 0.01 µM | 0.43 µM | 10.7 µM | 0.22 µM |  |  |  | CCC(C#Cc1cc(-c2ccc(C)cc2)n(-c2ccc(OC)cc2)n1)N(O)C(C)=O (stereo not drawn) [Cpd 28, N-acetyl-N-(1-(1-(4-methoxyphenyl)-5-(4-methylphenyl)pyrazol-3-yl)-1-pentyn-3-yl)hydroxylamine]
3 | 0.01 µM |  | 32 µM | 3.5 µM | 6.2 µM | 0% |  |  | COc1ccc(-n2nc(C#CC(C)N(O)C(N)=O)cc2-c2ccc(Cl)cc2)cc1 (stereo not drawn) [Cpd 6]
4 |  |  |  | 12 µM | 1.6 µM | 58% | 81% | 14% | COc1ccc(-n2nc(C#CC(C)N(O)C(=O)N3CCOCC3)cc2-c2ccc(Cl)cc2)cc1 (stereo not drawn) [Cpd 10]
5 | 0.27 µM | 0.06 µM | 2.51 µM | 11.9 µM | 0.34 µM |  |  |  | CCc1ccc(-c2cc(C#CC(C)N(O)C(C)=O)nn2-c2ccc(OC)cc2)cc1 (stereo not drawn) [Cpd 29, N-acetyl-N-(1-(5-(4-ethylphenyl)-1-(4-methoxyphenyl)pyrazol-3-yl)-1-butyn-3-yl)hydroxylamine]
6 | 0.24 µM | 4.6 µM |  | 8.4 µM | 1.2 µM |  |  | 29% | COc1ccc(-n2nc(C#CC(C(C)C)N(O)C(N)=O)cc2-c2ccc(C)cc2)cc1 (stereo not drawn) [Cpd 4]
7 | 0.92 µM | 14.9 µM |  | 1.8 µM | 5.5 µM |  |  | 5% | COc1ccc(-n2nc(C#CC(C)N(O)C(=O)c3ccccc3)cc2-c2ccc(Cl)cc2)cc1 (stereo not drawn) [Cpd 40]
8 |  |  | 10 µM | 38.7 µM | 3.6 µM | 13% | 67% |  | COc1ccc(-n2nc(C#CC(C)N(O)C(=O)Cn3ccnc3)cc2-c2ccc(C)cc2)cc1 (stereo not drawn) [Cpd 43, N-(imidazol-1-yl)acetyl-N-(1-(1-(4-methoxyphenyl)-5-(4-methylphenyl)pyrazol-3-yl)-1-butyn-3-yl)hydroxylamine]
9 | 0.28 µM | 0.14 µM | 0.53 µM | 7.1 µM | 0.49 µM |  |  |  | COC(=O)N(O)C(C)C#Cc1cc(-c2ccc(C)cc2)n(-c2ccc(OC)cc2)n1 (stereo not drawn) [Cpd 27]
10 |  |  | 2.93 µM | 10.1 µM | 10 µM | 100% | 97% |  | CCOC(=O)CCC(=O)N(O)C(C)C#Cc1cc(-c2ccc(C)cc2)n(-c2ccc(OC)cc2)n1 (stereo not drawn) [Cpd 22]
11 |  |  |  | 2.17 µM | 70.4 µM | 30% | 91% | 0% | CCC(C#Cc1cc(-c2ccc(Cl)cc2)n(-c2ccc(OC)cc2)n1)N(O)C(N)=O (stereo not drawn) [Cpd 11]
12 |  |  | 6 µM | 25.4 µM | 11.5 µM | 54% | 88% |  | COc1ccc(-n2nc(C#CC(C)N(O)C(=O)c3cccnc3)cc2-c2ccc(C)cc2)cc1 (stereo not drawn) [Cpd 26]
13 |  |  |  | 5.1 µM | 14 µM | 52% | 97% | 3% | CCOC(=O)CCC(=O)N(O)C(C)C#Cc1cc(-c2ccc(CC)cc2)n(-c2ccc(OC)cc2)n1 (stereo not drawn) [Cpd 32]
14 |  |  | 6.1 µM | 36.8 µM | 1.7 µM | 86% | 100% |  | CCc1ccc(-c2cc(C#CC(C)N(O)C(=O)CCl)nn2-c2ccc(OC)cc2)cc1 (stereo not drawn) [Cpd 31]
15 | 0.07 µM | 15.9 µM |  | 21.3 µM | 2.1 µM |  |  | 22% | CCC(C#Cc1cc(-c2ccc(C)cc2)n(-c2ccc(OC)cc2)n1)N(O)C(N)=O (stereo not drawn) [Cpd 3]
